According to ChEMBL document CHEMBL1201862, “PubChem BioAssay data set” (2004):
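Growth conditions: 96-well plates. Treatment: test compound, 48 hours, 5 concentrations. Analysis: linear interpolation between bracketing concentrations; unreached endpoints set to highest concentration. Abbreviation: GI50, concentration required for 50% inhibition of growth.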 The source made the active and inactive calls. Cut-off read from the data, not from the text of the source: active = GI50 up to about 1.1 µM and inactive = higher.

Columns and labels:
Assay in all cases: growth of human tumour cells (NCI), 48 h
786-0 = test system: 786-0
HCT-15 = test system: HCT-15
HT-29 = test system: HT-29
IGROV-1 = test system: IGROV-1
M14 = test system: M14
MDA-MB-435 = test system: MDA-MB-435
MOLT-4 = test system: MOLT-4
NCI-H23 = test system: NCI-H23
NCI/ADR-RES = test system: NCI/ADR-RES
OVCAR-3 = test system: OVCAR-3
PC-3 = test system: PC-3
SF-295 = test system: SF-295
SF-539 = test system: SF-539
SK-MEL-2 = test system: SK-MEL-2
SK-MEL-5 = test system: SK-MEL-5
T47D = test system: T47D
U-251 = test system: U-251
UACC-257 = test system: UACC-257
UO-31 = test system: UO-31

| SMILES | GI50 (786-0) | GI50 (HCT-15) | GI50 (HT-29) | GI50 (IGROV-1) | GI50 (M14) | GI50 (MDA-MB-435) | GI50 (MOLT-4) | GI50 (NCI-H23) | GI50 (NCI/ADR-RES) | GI50 (OVCAR-3) | GI50 (PC-3) | GI50 (SF-295) | GI50 (SF-539) | GI50 (SK-MEL-2) | GI50 (SK-MEL-5) | GI50 (T47D) | GI50 (U-251) | GI50 (UACC-257) | GI50 (UO-31) |
| --- | --- | --- | --- | --- | --- | --- | --- | --- | --- | --- | --- | --- | --- | --- | --- | --- | --- | --- | --- |
| Oc1[nH]c(Nc2cccc(Cl)c2)nc2ncnc1-2 | > 100 µM (inactive) | > 100 µM | 53.7 µM (inactive) | 80.4 µM (inactive) | 95.7 µM (inactive) | 83.8 µM (inactive) | 38.6 µM (inactive) | > 100 µM (inactive) | > 100 µM (inactive) | 48.4 µM (inactive) | 25.4 µM (inactive) | > 100 µM (inactive) | 82.8 µM (inactive) | 86.3 µM (inactive) | > 100 µM (inactive) | 44.9 µM (inactive) | > 100 µM (inactive) | > 100 µM (inactive) | > 100 µM (inactive) |
| O=S(=O)(Nc1ccc2ccc3cccc4ccc1c2c34)c1ccccc1 | 29 µM (inactive) | 12.9 µM | 49.2 µM (inactive) | 18.7 µM (inactive) | > 100 µM (inactive) | 3.82 µM (inactive) | 8.77 µM (inactive) | 96.6 µM (inactive) | 35.1 µM (inactive) | 8.26 µM (inactive) | 14.3 µM (inactive) | 10.4 µM (inactive) | 25.6 µM (inactive) | 70.5 µM (inactive) | 14.1 µM (inactive) | 28.4 µM (inactive) | 50.4 µM (inactive) | 58.7 µM (inactive) | 35.1 µM (inactive) |
| CCOc1cc(/C=C2/C(C)=NN(c3cccc(Cl)c3)/C2=N/c2nc3ccccc3s2)ccc1O | 32.1 µM (inactive) | 21.8 µM | 41.2 µM (inactive) | 29.6 µM (inactive) | 24.9 µM (inactive) | – | 32.7 µM (inactive) | 19.4 µM (inactive) | 20.5 µM (inactive) | 20 µM (inactive) | 19.8 µM (inactive) | 24.8 µM (inactive) | 24.5 µM (inactive) | 21.1 µM (inactive) | 17.8 µM (inactive) | 38.6 µM (inactive) | 20.3 µM (inactive) | 23.7 µM (inactive) | 19.4 µM (inactive) |
| Cc1cc(-c2no[n+]([O-])c2-c2cc(C)sc2S(C)(=O)=O)c(S(C)(=O)=O)s1 | > 100 µM (inactive) | > 100 µM | > 100 µM (inactive) | > 100 µM (inactive) | > 100 µM (inactive) | > 100 µM (inactive) | > 100 µM (inactive) | > 100 µM (inactive) | > 100 µM (inactive) | > 100 µM (inactive) | > 100 µM (inactive) | > 100 µM (inactive) | > 100 µM (inactive) | > 100 µM (inactive) | > 100 µM (inactive) | 89.5 µM (inactive) | > 100 µM (inactive) | – | > 100 µM (inactive) |
| FC(F)(F)c1nc(-c2ccccc2)oc1Sc1oc(-c2ccccc2)nc1C(F)(F)F | > 100 µM (inactive) | > 100 µM | > 100 µM (inactive) | > 100 µM (inactive) | 56.9 µM (inactive) | – | > 100 µM (inactive) | > 100 µM (inactive) | – | > 100 µM (inactive) | – | 34.4 µM (inactive) | 55.6 µM (inactive) | > 100 µM (inactive) | > 100 µM (inactive) | – | 54.6 µM (inactive) | > 100 µM (inactive) | > 100 µM (inactive) |
| COC(=O)/C=C1\CCC2[C@@H](C(=O)CC3[C@]2(C)CCC[C@@]3(C)C(=O)OC)C1C (some centres not stated) | 31.3 µM (inactive) | 29.8 µM | 24 µM (inactive) | 24.6 µM (inactive) | 17.9 µM (inactive) | – | 6.37 µM (inactive) | > 10 µM (inactive) | – | 22.7 µM (inactive) | – | 25.6 µM (inactive) | 25.2 µM (inactive) | 18.2 µM (inactive) | 13.5 µM (inactive) | – | 33.3 µM (inactive) | 17.9 µM (inactive) | 21.7 µM (inactive) |
| O=[N+]([O-])c1ccc(Cc2nc3ccccc3s2)cc1 | > 100 µM (inactive) | > 100 µM | 66.5 µM (inactive) | > 100 µM (inactive) | 99.8 µM (inactive) | – | 75.2 µM (inactive) | > 100 µM (inactive) | – | > 100 µM (inactive) | – | > 100 µM (inactive) | 26.8 µM (inactive) | > 100 µM (inactive) | 87.3 µM (inactive) | – | 44.8 µM (inactive) | > 100 µM (inactive) | > 100 µM (inactive) |
| CS/C(=C(\S)c1ccccc1)c1ccccc1 | > 100 µM (inactive) | > 100 µM | > 100 µM (inactive) | > 100 µM (inactive) | > 100 µM (inactive) | – | > 10 µM (inactive) | > 100 µM (inactive) | – | > 100 µM (inactive) | – | > 100 µM (inactive) | > 100 µM (inactive) | > 100 µM (inactive) | > 100 µM (inactive) | – | > 100 µM (inactive) | > 100 µM (inactive) | > 100 µM (inactive) |
| Fc1cccc(F)c1C1SCc2nc3ccccc3n21 (configuration not stated) [THIAZOLOBENZIMIDAZOLE] | > 100 µM (inactive) | 54.5 µM | 62.7 µM (inactive) | 80.9 µM (inactive) | > 100 µM (inactive) | – | 35.3 µM (inactive) | 45.5 µM (inactive) | – | 47.4 µM (inactive) | – | 39.8 µM (inactive) | > 100 µM (inactive) | > 100 µM (inactive) | 31.5 µM (inactive) | – | > 100 µM (inactive) | 60.8 µM (inactive) | 51.5 µM (inactive) |
| CC1=NN(c2nc(N)nc(CS(C)(=O)=O)n2)C(C)(C)C1 | > 100 µM (inactive) | > 100 µM | > 100 µM (inactive) | > 100 µM (inactive) | > 100 µM (inactive) | > 100 µM (inactive) | > 100 µM (inactive) | > 100 µM (inactive) | > 100 µM (inactive) | – | > 100 µM (inactive) | > 100 µM (inactive) | > 100 µM (inactive) | > 100 µM (inactive) | > 100 µM (inactive) | > 100 µM (inactive) | > 100 µM (inactive) | > 100 µM (inactive) | > 100 µM (inactive) |
| O=[N+]([O-])c1ccc(-c2ccc(-c3csc(Nc4ccccc4)n3)o2)cc1 | 17.1 µM (inactive) | 19.7 µM | 22.7 µM (inactive) | 25.1 µM (inactive) | 20.6 µM (inactive) | – | 3.62 µM (inactive) | 20.2 µM (inactive) | – | 19.3 µM (inactive) | – | 34.6 µM (inactive) | 18.8 µM (inactive) | 19.2 µM (inactive) | 19.5 µM (inactive) | – | 19.6 µM (inactive) | 17.9 µM (inactive) | 18.7 µM (inactive) |
| O=C1C2Nc3ccccc3SC2C(=O)N1c1ccccc1C(F)(F)F (configuration not stated) | 25.2 µM (inactive) | 15.9 µM | 26.4 µM (inactive) | 54.1 µM (inactive) | 16 µM (inactive) | – | 23.2 µM (inactive) | 24 µM (inactive) | – | 22.3 µM (inactive) | – | 14.9 µM (inactive) | 17.8 µM (inactive) | 27.2 µM (inactive) | 12 µM (inactive) | – | 19.1 µM (inactive) | > 100 µM (inactive) | 38.2 µM (inactive) |
